{"source": "patent US9441024", "settings": "disulfide bond; 38-membered ring", "data": [{"substance": "C(disialo(aminoethylamide))/S1C(disialo)-SRIF28", "values": [{"measurement": "ring closure, yield after HPLC", "value": 58, "unit": "%"}]}, {"substance": "C(disialo)-C12 linker-SRIF14", "values": [{"measurement": "ring closure, yield after HPLC", "value": 61, "unit": "%"}]}, {"substance": "S1-2C(asialo)-SRIF28", "values": [{"measurement": "ring closure, yield after HPLC", "value": 55, "unit": "%"}]}, {"substance": "S1-2C(disialo)-SRIF28", "values": [{"measurement": "ring closure, yield after HPLC", "value": 58, "unit": "%"}]}, {"substance": "S1-3C(asialo)-SRIF28", "values": [{"measurement": "ring closure, yield after HPLC", "value": 52, "unit": "%"}]}, {"substance": "S1-3C(disialo)-SRIF28", "values": [{"measurement": "ring closure, yield after HPLC", "value": 63, "unit": "%"}]}, {"substance": "S1-4C(disialo)-SRIF28", "values": [{"measurement": "ring closure, yield after HPLC", "value": 57, "unit": "%"}]}, {"substance": "S1-5C(disialo)-SRIF28", "values": [{"measurement": "ring closure, yield after HPLC", "value": 76, "unit": "%"}]}, {"substance": "S1C(diGlcNAc)-SRIF28", "values": [{"measurement": "ring closure, yield after HPLC", "value": 60, "unit": "%"}]}, {"substance": "S1C(disialo (hexadecylamide))-SRIF28", "values": [{"measurement": "ring closure, yield after HPLC", "value": 89, "unit": "%"}]}, {"substance": "S1C(disialo(aminoethylamide))-SRIF28", "values": [{"measurement": "ring closure, yield after HPLC", "value": 73, "unit": "%"}]}, {"substance": "S1C(disialo)-SRIF28", "values": [{"measurement": "ring closure, yield after HPLC", "value": 59, "unit": "%"}]}, {"substance": "S1C(disialo).N19C(GlcNAc)-SRIF28", "values": [{"measurement": "ring closure, yield after HPLC", "value": 59, "unit": "%"}]}]}
